Test results as given in patent publication US5827876A, “Inhibition of bone loss by 3-(4-acrylamidobenzoyl) benzo[b]-thiophenes” (priority 1997, dated 1998).
Where two headings read alike, the source gives them in different places.

Experiments:
[1] = tested on: Ishikawa cells; assay: Ishikawa Cell Alkaline Phosphatase Assay; assay type: cell-based; conditions: Homo sapiens, reference compounds, estrogenic activity, 48 h treatment, 95% C.I. given in parentheses, read-out: ED50 values (95% C.I.), alkaline phosphatase activity
Protocol: Ishikawa Cell Alkaline Phosphatase Assay
Cell maintenance and treatment:
Ishikawa cells are maintained in DMEM/F12 (50%:50%) containing phenol red+10% fetal bovine serum. The medium also is supplemented with 2 mM Glutamax, 1% Pen/Strep and 1 mM sodium pyruvate. Five days prior to the beginning of an experiment (treatment of cells) the medium is changed to phenol red-free DMEM/F12+10% dextran coated charcoal stripped serum. On the day before treatment, cells are harvested using 0.5% trypsin/EDTA and plated at a density of 5×10^4 cells/well in 96-well tissue culture plates. […] Cells are treated for 48 hours prior to assay. […] Sample size for each compound dose is n=8.
Alkaline Phosphatase assay:
At the end of 48 hours the media is aspirated and cells are washed three times with phosphate buffered saline (PBS). 50 μl of lysis buffer (0.1M Tris-HCl, pH 9.8, 0.2% Triton X-100) is added to each well. Plates are placed at -80° C. for minimally 15 minutes. Plates are rapidly thawed at 37° C. followed by the addition of 150 μl of 0.1M Tris-HCl, pH 9.8, containing 4 mM para-nitrophenylphosphate to each well (final concentration is 3 mM pNPP).
Absorbance and slope calculations are done using the KineticCalc Application program (Bio-Tek Instruments, Inc., Winooski, Vt.). Results are expressed as the mean ±S.D. of the rate of enzyme reaction (slope) averaged over the linear portion of the kinetic reaction curve (optical density readings every 5 minutes for 30 minutes absorbance reading).

[2] = target: T1, estrogen receptor (Homo sapiens, UniProt P03372); assay: Estrogen Receptor Binding/Competition Assay ([3H]17β-estradiol displacement, CHO cytosol)
T1 sequence (P03372 1-595): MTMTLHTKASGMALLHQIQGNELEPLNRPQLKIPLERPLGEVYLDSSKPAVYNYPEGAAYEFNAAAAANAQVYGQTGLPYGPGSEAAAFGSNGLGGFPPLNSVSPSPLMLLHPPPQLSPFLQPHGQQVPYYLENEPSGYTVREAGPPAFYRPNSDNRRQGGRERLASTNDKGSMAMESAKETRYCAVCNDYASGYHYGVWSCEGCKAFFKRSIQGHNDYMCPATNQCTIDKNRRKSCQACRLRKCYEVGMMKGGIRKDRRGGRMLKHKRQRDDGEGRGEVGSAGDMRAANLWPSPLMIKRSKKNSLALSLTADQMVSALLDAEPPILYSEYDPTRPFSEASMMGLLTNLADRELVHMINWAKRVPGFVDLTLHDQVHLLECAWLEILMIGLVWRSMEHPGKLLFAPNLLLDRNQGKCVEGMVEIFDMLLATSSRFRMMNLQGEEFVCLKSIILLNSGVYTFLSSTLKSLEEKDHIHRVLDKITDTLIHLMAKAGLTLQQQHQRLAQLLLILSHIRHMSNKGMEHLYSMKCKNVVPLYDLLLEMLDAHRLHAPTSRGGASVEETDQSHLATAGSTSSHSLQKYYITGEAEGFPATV

[3] = tested on: ovariectomized rats; conditions: cited from earlier work
[4] = background statement, cited from earlier work
[5] = ovariectomized rats, Black et al. 1994

Row | EC50 [1] [nM] | IC50 [2] [nM] | Structure (SMILES) | other results
1 | 1.42 | – | C[C@]12CC[C@@H]3c4ccc(O)cc4CC[C@H]3[C@@H]1CC[C@H]2O [17α-estradiol] | –
2 | – | 70 | O=C(c1ccc(/C=C/C(=O)N2CCCCC2)cc1)c1c(-c2ccc(O)cc2)sc2cc(O)ccc12 [Example 7, (E)-3-{4-[6-Hydroxy-2-(4-hydroxyphenyl)benzo[b]thiophene-3-carbonyl]phenyl}-1-(piperidinyl)prop-en-1-one] | –
3 | – | – | O=C(c1ccc(OCCN2CCCCC2)cc1)c1c(-c2ccc(O)cc2)sc2cc(O)ccc12 [raloxifene] | effect on bone loss [3, 5]: prevents bone loss; effect on serum cholesterol [3, 5]: reduces serum cholesterol; uterine hypertrophy [3, 5]: without causing uterine hypertrophy; effect on bone loss ([3]; species not given): reduce bone loss; uterine hypertrophy ([3]; species not given): without causing uterine hypertrophy
4 | – | 150 | CN(C)C(=O)/C=C/c1ccc(C(=O)c2c(-c3ccc(O)cc3)sc3cc(O)ccc23)cc1 [Example 3, (E)-3-{4-[6-Hydroxy-2-(4-hydroxyphenyl)benzo[b]thiophene-3-carbonyl]phenyl}-N,N-dimethylacrylamide] | –
5 | 0.36 | – | C[C@]12CC[C@@H]3c4ccc(O)cc4CC[C@H]3[C@@H]1CCC2=O [estrone] | –
6 | – | 100 | CC(C)(C)NC(=O)/C=C/c1ccc(C(=O)c2c(-c3ccc(O)cc3)sc3cc(O)ccc23)cc1 [Example 4, (E)-N-t-Butyl-3-{4-[6-hydroxy-2-(4-hydroxyphenyl)benzo[b]thiophene-3-carbonyl]phenyl}acrylamide] | –
7 | 0.03 | – | C[C@]12CC[C@@H]3c4ccc(O)cc4CC[C@H]3[C@@H]1CC[C@@H]2O [17β-estradiol] | –
8 | – | 100 | CCN(CC)C(=O)/C=C/c1ccc(C(=O)c2c(-c3ccc(O)cc3)sc3cc(O)ccc23)cc1 [Example 5, (E)-N,N-Diethyl-3-{4-[6-hydroxy-2-(4-hydroxyphenyl)benzo[b]thiophene-3-carbonyl]phenyl}acrylamide] | –
9 | – | 170 | O=C(c1ccc(/C=C/C(=O)N2CCOCC2)cc1)c1c(-c2ccc(O)cc2)sc2cc(O)ccc12 [Example 6, (E)-3-{4-[6-Hydroxy-2-(4 hydroxyphenyl)benzo[b]thiophene-3-carbonyl]-phenyl}-1-(morpholin-4-yl)prop-2-en-1-one] | –
10 | – | – | [F-].[Na+] [sodium fluoride] | bone growth quality [4]: the bone growth is irregular; fracture incidence [4]: fracture incidence does not appear to be significantly lowered; side-effects [4]: significant side-effects; bone density increase ([4]; up to the value): 8-10 % a year
11 | 0.13 | – | C[C@]12CC[C@@H]3c4ccc(O)cc4CC[C@H]3[C@@H]1C[C@@H](O)[C@@H]2O [estriol] | –
